In patent publication US20210246157A1, “CAMPTOTHECIN DERIVATIVES AND PREPARATION METHODS AND APPLICATIONS THEREOF” (priority 2018, published 2021):
In brackets after ≈: the same amount, converted by molar mass. Structures can show the parent of a compound that is named as a salt. Where two headings read alike, the source gives them in different places.

Assays:
[1] = Solubility test, equilibrium method, UV-visible spectrophotometry; assay type: physicochemical; conditions: for solubility: thermodynamic from solid
Protocol: The solubility test is carried out by equilibrium method. […] An appropriate amount of the compound is weighed and dissolved in 1 mL of methanol solution to prepare a control solution with a certain concentration (C0). The concentration of test solution is calculated according to the following formula: Cx=(Ax/A0)C0, wherein Cx is concentration of test solution, Ax is absorbance of test solution, C0 is concentration of control solution, and A0 is absorbance of control solution.

tumor = conditions: Santi et al., J Med Chem. 2014; cited from earlier work
[2] = common drug solvents and water; Santi et al.; cited from earlier work
MDA-MB-231 = assay: Cytotoxicity test (MTT, 72 h); conditions: Homo sapiens, MDA-MB-231, 72 h, read-out: 50% Inhibiting Concentration value (IC50)
Protocol: (§1) In order to investigate the antitumor activities of the compounds, a variety of tumor cell lines for test are selected. Cells at logarithmic growth period are inoculated in a 96-well plate overnight, then drugs with a certain gradient concentrations are added, and incubation is carried out in a cell culture chamber (5% CO2, 37° C.) for 72 h.

PC3 = assay: Cytotoxicity test (MTT, 72 h); conditions: Homo sapiens, PC-3, 72 h, read-out: 50% Inhibiting Concentration value (IC50)
Protocol: as §1

BGC-823 = assay: Cytotoxicity test (MTT, 72 h); conditions: Homo sapiens, BGC-823, 72 h, read-out: 50% Inhibiting Concentration value (IC50)
Protocol: as §1

K562 = assay: Cytotoxicity test (MTT, 72 h); conditions: Homo sapiens, K562, 72 h, read-out: 50% Inhibiting Concentration value (IC50)
Protocol: as §1

A549 = assay: Cytotoxicity test (MTT, 72 h); conditions: Homo sapiens, A549, 72 h, read-out: 50% Inhibiting Concentration value (IC50)
Protocol: as §1

SW-480 = assay: Cytotoxicity test (MTT, 72 h); conditions: Homo sapiens, SW480, 72 h, read-out: 50% Inhibiting Concentration value (IC50)
Protocol: (§2) Cells at logarithmic growth period are inoculated in a 96-well plate overnight, then drugs with a certain gradient concentrations are added, and incubation is carried out in a cell culture chamber (5% CO2, 37° C.) for 72 h.

TPC-1 = assay: Cytotoxicity test (MTT, 72 h); conditions: Homo sapiens, TPC1, 72 h, read-out: 50% Inhibiting Concentration value (IC50)
Protocol: as §2

H1975 = assay: Cytotoxicity test (MTT, 72 h); conditions: Homo sapiens, NCI-H1975, 72 h, read-out: 50% Inhibiting Concentration value (IC50)
Protocol: as §1

ECA-109 = assay: Cytotoxicity test (MTT, 72 h); conditions: Homo sapiens, ECa-109, 72 h, read-out: 50% Inhibiting Concentration value (IC50)
Protocol: as §1

HCT-116 = assay: Cytotoxicity test (MTT, 72 h); conditions: Homo sapiens, HCT-116, 72 h, read-out: 50% Inhibiting Concentration value (IC50)
Protocol: as §1

PANC-1 = assay: Cytotoxicity test (MTT, 72 h); conditions: Homo sapiens, PANC-1, 72 h, read-out: 50% Inhibiting Concentration value (IC50)
Protocol: as §2

[3] = Multi-dose in vivo antitumor activity study, mouse weight (Example 20); set-up: species or system mice; conditions: CPT-11 group 10 mg/kg, caudal vein once every 2 days
Protocol: The drugs are administered through the caudal veins of mice once every 2 days for a total of 7 times.
At the end of the treatment cycle, the orbital venous blood of the mice is collected for later blood routine test, the mice are killed by cervical dislocation method, and tumors are removed immediately and photographed. From day 0, the mice in each group are weighed every three days, and the weights are recorded. The weight average value of each group is calculated, and mouse weight variation curve is drawn according to statistical data. At the end of the treatment cycle, tumors are removed from anesthetized mice immediately and weighted, and the tumor weight of each group is recorded. The tumor inhibition rate (%) is calculated according to the following formula: […]

143B = assay: Cytotoxicity test (MTT, 72 h); conditions: Homo sapiens, read-out: 50% Inhibiting Concentration value (IC50)
Protocol: as §1

HT-29 = assay: Cytotoxicity test (MTT, 72 h); conditions: Homo sapiens, HT-29, 72 h, read-out: 50% Inhibiting Concentration value (IC50)
Protocol: as §2

Hela = assay: Cytotoxicity test (MTT, 72 h); conditions: Homo sapiens, read-out: 50% Inhibiting Concentration value (IC50)
Protocol: as §1

SKOV-3 = assay: Cytotoxicity test (MTT, 72 h); conditions: Homo sapiens, SK-OV-3, 72 h, read-out: 50% Inhibiting Concentration value (IC50)
Protocol: as §2

HepG2 = assay: Cytotoxicity test (MTT, 72 h); conditions: Homo sapiens, HepG2, 72 h, read-out: 50% Inhibiting Concentration value (IC50)
Protocol: as §1

[4] = aqueous buffer, PBS pH 7.4, read-out: Solubility in PBS (pH = 7.4)
[5] = water, read-out: Solubility in Water
[6] = aqueous with cosolvent or surfactant or cyclodextrin
[7] = aqueous with cosolvent or surfactant or cyclodextrin, 0.1% aqueous solution of Tween-80, read-out: Solubility in 0.1% Tween-80
[8] = saline or isotonic, normal saline, read-out: Solubility in Normal Saline (NS)

CCc1c2c(nc3ccc(O)cc13)-c1cc3c(c(=O)n1C2)COC(=O)[C@]3(O)CC [SN38, reference compound]
Solubility in 0.1% Tween-80 ([1]; 0.1% aqueous solution of Tween-80): 77.4 µg/mL (≈ 197 µM) | Solubility in PBS (pH = 7.4) ([1]; PBS pH 7.4): 17.6 μg/mL | Solubility in Normal Saline (NS) ([1]; normal saline): 7.5 µg/mL (≈ 19.1 µM) | solubility in water, normal saline, PBS (PH 7.4) and 0.1% aqueous solution of Tween-80 (in words) ([1]; summary of Table 1): very low solubility | Solubility in Water ([1]; water): 7.7 µg/mL (≈ 19.6 µM) | in vitro antitumor activity relative to irinotecan (tumor): 100-1000 times | solubility (in words) [2]: almost insoluble in common drug solvents and water

CCc1c2c(nc3ccc(OC(=O)N4CCC(N5CCCCC5)CC4)cc13)-c1cc3c(c(=O)n1C2)COC(=O)[C@]3(O)CC [CPT-11, Irinotecan hydrochloride, reference compound]
IC50 (MDA-MB-231): 14.4 µM | solubility ([1]; 0.1% aqueous solution of Tween-80, aqueous with cosolvent or surfactant or cyclodextrin, read-out: Solubility in 0.1% Tween-80): 597 µg/mL | solubility [1, 4]: 843 µg/mL | solubility ([1]; normal saline, saline or isotonic, read-out: Solubility in Normal Saline (NS)): 1220 µg/mL | solubility [1, 5]: 6300 µg/mL | IC50 (PC3): 25.1 µM | IC50 (BGC-823): 9.15 µM | IC50 (K562): 10.7 µM | IC50 (A549): 35 µM | IC50 (SW-480): 7.38 µM | IC50 (TPC-1): 25 µM | IC50 (H1975): 29.1 µM | IC50 (ECA-109): 11.7 µM | IC50 (HCT-116): 14.1 µM | IC50 (PANC-1): 22 µM | Mouse Weight ([3]; day 0): 16.53 g | Mouse Weight ([3]; day 3): 15.87 g | Mouse Weight ([3]; day 6): 16.10 g | Mouse Weight ([3]; day 9): 16.96 g | Mouse Weight ([3]; day 12): 16.53 g | Mouse Weight ([3]; day 15): 16.86 g | Mouse Weight ([3]; day 18): 16.27 g | Mouse Weight ([3]; day 21): 17.28 g | IC50 (143B): 20.3 µM | IC50 (HT-29): 12.8 µM | IC50 (Hela): 12 µM | IC50 (SKOV-3): 16.5 µM | IC50 (HepG2): 22.1 µM

CCc1c2c(nc3ccc(OC(=O)OCCOCc4cn([C@H]5O[C@@H](CO)[C@H](O)[C@@H](O)[C@@H]5O)nn4)cc13)-c1cc3c(c(=O)n1C2)COC(=O)[C@]3(O)CC [Compound 37]
IC50 (MDA-MB-231): 1.82 µM | solubility [1, 6]: 360 µg/mL (≈ 497 µM) | solubility ([1]; pH 7.4, aqueous buffer): 54.4 µg/mL (≈ 75.2 µM) | solubility ([1]; saline or isotonic): 725 µg/mL (≈ 1000 µM) | solubility ([1]; water): 159 µg/mL (≈ 220 µM) | IC50 (PC3): 10.9 µM | IC50 (BGC-823): 1.25 µM | IC50 (K562): 1.95 µM | IC50 (A549): 13.1 µM | IC50 (SW-480): 0.014 µM | IC50 (TPC-1): 18.3 µM | IC50 (H1975): 21.1 µM | IC50 (ECA-109): 1.62 µM | IC50 (HCT-116): 2.34 µM | IC50 (PANC-1): 13.7 µM | IC50 (143B): 17.6 µM | IC50 (HT-29): 1.94 µM | IC50 (Hela): 12.7 µM | IC50 (SKOV-3): 2.63 µM | IC50 (HepG2): 2.19 µM

CCc1c2c(nc3ccc(OC(=O)OCCOCCOCCOCc4cn([C@H]5O[C@@H](CO)[C@H](O)[C@@H](O)[C@@H]5O)nn4)cc13)-c1cc3c(c(=O)n1C2)COC(=O)[C@]3(O)CC [Compound 52]
IC50 (MDA-MB-231): 6.85 µM | solubility [1, 6]: 320 µg/mL (≈ 394 µM) | solubility ([1]; pH 7.4, aqueous buffer): 85.2 µg/mL (≈ 105 µM) | solubility ([1]; saline or isotonic): 446 µg/mL (≈ 549 µM) | solubility ([1]; water): 3050 µg/mL (≈ 3750 µM) | IC50 (PC3): 9.26 µM | IC50 (BGC-823): 0.139 µM | IC50 (K562): 0.439 µM | IC50 (A549): 11.1 µM | IC50 (SW-480): 0.167 µM | IC50 (TPC-1): 26.1 µM | IC50 (H1975): 21.8 µM | IC50 (ECA-109): 0.716 µM | IC50 (HCT-116): 0.527 µM | IC50 (PANC-1): 13.3 µM | IC50 (143B): 18.1 µM | IC50 (HT-29): 0.859 µM | IC50 (Hela): 13.3 µM | IC50 (SKOV-3): 9.86 µM | IC50 (HepG2): 8.22 µM

CCc1c2c(nc3ccc(OC(=O)NCCCCCOCc4cn([C@H]5O[C@@H](CO)[C@H](O)[C@@H](O)[C@@H]5O)nn4)cc13)-c1cc3c(c(=O)n1C2)COC(=O)[C@]3(O)CC [Compound 87]
IC50 (MDA-MB-231): 6.12 µM | solubility [1, 4]: 910 µg/mL (≈ 1190 µM) | solubility [1, 7]: 1110 µg/mL (≈ 1450 µM) | solubility [1, 8]: 894 µg/mL (≈ 1170 µM) | solubility [1, 5]: 1050 µg/mL (≈ 1370 µM) | IC50 (PC3): 5.29 µM | IC50 (BGC-823): 0.96 µM | IC50 (K562): 1.27 µM | IC50 (A549): 6.35 µM | IC50 (SW-480): 1.15 µM | IC50 (TPC-1): 6.15 µM | IC50 (H1975): 5.12 µM | IC50 (ECA-109): 6.14 µM | IC50 (HCT-116): 1.52 µM | IC50 (PANC-1): 7.62 µM | IC50 (143B): 4.27 µM | IC50 (HT-29): 7.36 µM | IC50 (Hela): 7.62 µM | IC50 (SKOV-3): 8.82 µM | IC50 (HepG2): 7.35 µM

CCc1c2c(nc3ccc(OC(=O)NCCOCc4cn([C@H]5O[C@@H](CO)[C@H](O)[C@@H](O)[C@@H]5O)nn4)cc13)-c1cc3c(c(=O)n1C2)COC(=O)[C@]3(O)CC [Compound 66]
IC50 (MDA-MB-231): 1.35 µM | solubility [1, 4]: 2880 µg/mL (≈ 3980 µM) | solubility [1, 7]: 1140 µg/mL (≈ 1580 µM) | solubility [1, 8]: 1590 µg/mL (≈ 2210 µM) | solubility [1, 5]: 979 µg/mL (≈ 1350 µM) | IC50 (PC3): 4.71 µM | IC50 (BGC-823): 0.18 µM | IC50 (K562): 0.703 µM | IC50 (A549): 5.65 µM | IC50 (SW-480): 0.216 µM | IC50 (TPC-1): 10.2 µM | IC50 (H1975): 8.46 µM | IC50 (ECA-109): 4.26 µM | IC50 (HCT-116): 0.843 µM | IC50 (PANC-1): 6.78 µM | IC50 (143B): 7.05 µM | IC50 (HT-29): 5.11 µM | IC50 (Hela): 6.78 µM | IC50 (SKOV-3): 1.95 µM | IC50 (HepG2): 1.62 µM
